# According to US12616713B2, “Methods for enhancing vascular density” (priority 2016, dated 2026):
# Columns and labels:
# [1] = test system: HUVECs; assay: Seahorse analysis of oxygen consumption rate; format: cell-based, human; conditions: NaHS 100 μM, NMN 500 μM
# Protocol: Oxygen consumption rates were measured in accordance with manufacturer instructions using Seahorse XF96 analyzer (Seahorse Bioscience). Briefly, 40,000 HUVECs were plated onto XF96 plates and incubated overnight at 37° C./5% CO2. Next day, the media was replaced with XF assay media (DMEM), supplemented with glucose (1 g/L), glutamate (2 mM) and pyruvate (1 mM) and the pH was adjusted to 7.4. NaHS (100 μM) and/or NMN (500 μM) were added at the start of the experiment. Oxygen consumption measurements were made approximately every 8 minutes under basal conditions, and after the addition of oligomycin (1 μM). Experiments were replicated in six wells and averaged for each experimental condition.
# [2] = test system: HUVECs; assay: Tube formation assay, HUVECs after H2O2; format: cell-based, human; conditions: H2O2 150 μM 1 h, NMN 500 μM 10 h
# Protocol: Formation of tube networks was assessed as described before (Borradaile and Pickering, 2009, Aging Cell 8, 100-112). ECs were seeded at 10,000 cells per well in a 24-well plate (Corning) coated with 150 μL Cultrex reduced growth factor basement membrane extract (Trevigen). The cells were supplemented with C2C12 CM or EBM-2 medium containing VEGF (30 ng/mL) or FGF (30 ng/mL). NMN (0.5 mM) and NaHS (0.1 mM) were added to the media wherever mentioned. Following an 18 h-incubation, resulting tube networks were analyzed by light microscopy (Nikon Eclipse TiE). For tube formation assays with H2O2 treatment, cells were incubated with 150 μM H2O2 for 1 h before seeding and imaged after 10 h-incubation. The number of branch points and total length of tubule networks were quantified by ImageJ software.
# [3] = test system: HUVECs; assay: VEGF-mediated transwell migration assay, HUVECs; format: cell-based, human; conditions: NMN 500 μM versus PBS
# [4] = test system: C57BL/6J mice; assay: Contrast-enhanced ultrasound of hindlimb muscle perfusion; format: in vivo, mouse; conditions: 20-month old mice, NMN-treated versus vehicle
# Protocol: Mice were anesthetized with isoflurane (1.5-2%, 500 ml 02/min), hindlimbs were shaved using depilatory cream and a 27-gauge catheter was placed into each mouse's tail and kept in place with surgical tape. Each mouse was placed in a supine position on a platform heated to 38° C. with each paw taped to a surface electrode to monitor ECG, heart rate, and respiratory rate. Contrast-enhanced ultrasound (CEU) (Vevo 2100, Visualsonics, Canada) was performed at an imaging frequency of 18 MHz. The probe was placed on the medial side of the leg to image the lower hindlimb in a sagittal plane. A bolus injection of microbubbles (Vevo MicroMarker, Canada) were injected through the tail vein catheter according to the manufacturer's instructions. A cine loop was recorded at a frame rate of 20 frames/s for a total of 1,000 frames. Curve fit analysis was used to measure echo power over time. The difference in maximum and minimum video intensity was determined as the peak enhancement and was the variable used to determine muscle perfusion.
# [5] = test system: C57BL/6J mice; assay: Treadmill endurance testing; format: in vivo, mouse
# Protocol: Endurance testing. Treadmill tests were carried out on a 1050-RM Exer 3/6 Open Treadmill (Columbus Instruments, OH). Mice were acclimatized to the treadmill system for 3 days prior to endurance testing by running at 10-15 m/min for 20 min. In low intensity endurance testing, the speed started at 5 m/min for 5 min (warm up), and then the speed was increased by 1 every minute until 21 m/min and kept constant. In high intensity endurance testing, the speed started at 13 m/min for 5 min (warm up) at 5° inclination, and then the speed was increased by 1 every minute until 20 m/min and kept constant for 20 min. Every 20 min, the speed was increased by 5 m/min and held constant for 20 min. Mice were considered exhausted when they sat on the shocker plate for more than 10 sec without attempting to reinitiate running.
# [6] = test system: HUVECs; assay: Wound scratch assay, HUVECs; format: cell-based, human; conditions: Scr or SIRT1 siRNA HUVECs, H2O2 150 μM 1 h, NaHS 100 μM and/or NMN 500 μM, 6 h
# Protocol: ECs were cultured until forming a confluent monolayer and a scratch was made using a 200 μL pipette tip. Then the cells were allowed to migrate+/−NaHS (0.1 mM) and +/−NMN (0.5 mM) in EGM-2 medium for 6 hrs. Images were taken at the same location using a brightfield inverted microscope (Olympus 2467) every 2 h. The area of gap closure was calculated using ImageJ software. In some experiments, HUVECs were transduced with Scr or SIRT1 siRNA and cultured until forming a confluent monolayer. The cells were exposed to H2O2 (150 μM) for 1 h and a scratch was made using a 200 μL pipette tip. Then the cells were allowed to migrate with PBS (vehicle), NaHS (100 μM) and/or NMN (500 μM) in EGM-2 medium for 6 h. Images were taken at the same location using a brightfield inverted microscope (Olympus 2467) every 2 h. The area of gap closure was calculated using ImageJ software.
# [7] = test system: SIRT1-iKO and WT mice; assay: Hindlimb ischemia model; format: in vivo, mouse; conditions: 8-month old mice, femoral ligation, NMN 20 days; SIRT1-dependent
# Protocol: The effect of NMN in ischemia-induced vessel formation was assessed in a murine model of hindlimb ischemia using SIRT1-iKO and WT mice according to the published protocol (Limbourg et al., 2009, Nat Protoc 4, 1737-1746). Treatment of animals with NMN (500 mg/kg/day) via drinking water started one week prior to femoral ligation and was continued until the end of the experiment. The blood flow in the ischemic limb was measured using contrast-enhanced ultrasound imaging, 20 days after the surgery.
# Mice were anesthetized with isoflurane (1.5-2%, 500 ml 02/min), hindlimbs were shaved using depilatory cream and a 27-gauge catheter was placed into each mouse's tail and kept in place with surgical tape. […] A cine loop was recorded at a frame rate of 20 frames/s for a total of 1,000 frames. […] The difference in maximum and minimum video intensity was determined as the peak enhancement and was the variable used to determine muscle perfusion.
# Freshly isolated whole quadriceps and gastrocnemius muscle samples were mounted in OCT compound (Tissue-Tek), placed in an isopentane bath and slowly cooled in liquid nitrogen. […] Images were acquired using a confocal fluorescence microscope (Nikon A1). Quantification of capillaries and capillary density were performed using ImageJ software. […]
# [8] = 20-month old mice, low intensity treadmill test
smiles,measurement,setting,value
"NC(=O)c1ccc[n+]([C@@H]2O[C@H](COP(=O)([O-])O)[C@@H](O)[C@H]2O)c1 [NMN, nicotinamide mononucleotide]",basal OCR,[1],had no effect
same,VEGF mediated angiogenesis (tube formation) after treatment with H2O2,[2],promoted VEGF mediated angiogenesis
same,motility in response to VEGF (migrated cells),[3],promoted
same,resting muscle perfusion (peak enhancement),[4],increased resting muscle perfusion
same,distance run further than untreated mice,"[5]; 20-month old mice, high-endurance exercise regimen",80%
same,distance run until exhaustion,[5]; [8],686 meters
same,"low-intensity endurance, improvement over the untreated mice",[5]; [8],56%
same,time and distance to exhaustion (endurance),"[5]; 31-month old mice, low intensity treadmill test",significant trend towards increased time and distance to exhaustion
same,"exercise capacity, including endurance",[5]; mice (summary statement),increased exercise capacity
same,cell migration (percentage of closed gaps),[6],had no effect
same,capillary density of ischemic gastrocnemius,[7],restored
same,relative blood volume (peak enhancement) of ischemic limb,[7],restored
